Key:
Experiment in all cases: biochemical
Parameters in all cases: KINOMEscan competition binding, DNA-tagged kinase against immobilised ligand, qPCR read-out
TGFBR1 = TGFBR1 (Homo sapiens, UniProt P36897); settings: read-out: Percent Control
EPHB3 = EPHB3 (Homo sapiens, UniProt P54753); settings: read-out: Percent Control
WEE2 = WEE2 (Homo sapiens, UniProt P0C1S8); settings: read-out: Percent Control
DDR2 = DDR2 (Homo sapiens, UniProt Q16832); settings: read-out: Percent Control
MELK = MELK (Homo sapiens, UniProt Q14680); settings: read-out: Percent Control
[1] = target: T1, RPS6KA5(Kin.Dom.1-N-terminal) (Homo sapiens, UniProt O75582); settings: read-out: Percent Control
T1 construct: Kin.Dom.1 N-terminal

TNK1 = TNK1 (Homo sapiens, UniProt Q13470); settings: read-out: Percent Control
MAP3K19 = MAP3K19 (Homo sapiens, UniProt Q56UN5)
How it was run: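 Compound tested as an 11-point, 3-fold dilution series (DMSO stocks at 100×, 1× in assay) for displacing DNA-tagged kinase from an immobilised ligand. Kinase remaining on the ligand is read out by qPCR.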

MARK4 = MARK4 (Homo sapiens, UniProt Q96L34); settings: read-out: Percent Control
FGFR3 = FGFR3 (Homo sapiens, UniProt P22607); settings: read-out: Percent Control
ACVR2A = ACVR2A (Homo sapiens, UniProt P27037); settings: read-out: Percent Control
PHKG2 = PHKG2 (Homo sapiens, UniProt P15735); settings: read-out: Percent Control
MAP3K7 = MAP3K7 (Homo sapiens, UniProt O43318); settings: read-out: Percent Control
NUAK2 = NUAK2 (Homo sapiens, UniProt Q9H093); settings: read-out: Percent Control
MAST1 = MAST1 (Homo sapiens, UniProt Q9Y2H9); settings: read-out: Percent Control
RIOK2 = RIOK2 (Homo sapiens, UniProt Q9BVS4); settings: read-out: Percent Control
MUSK = MUSK (Homo sapiens, UniProt O15146); settings: read-out: Percent Control
DCLK2 = DCLK2 (Homo sapiens, UniProt Q8N568); settings: read-out: Percent Control
[2] = target: T2, JAK1(JH2domain-pseudokinase) (Homo sapiens, UniProt P23458); settings: read-out: Percent Control
T2 construct: JH2 domain pseudokinase

CHUK = CHUK (Homo sapiens, UniProt O15111); settings: read-out: Percent Control

MAP3K19, sequence (Q56UN5 whole entry): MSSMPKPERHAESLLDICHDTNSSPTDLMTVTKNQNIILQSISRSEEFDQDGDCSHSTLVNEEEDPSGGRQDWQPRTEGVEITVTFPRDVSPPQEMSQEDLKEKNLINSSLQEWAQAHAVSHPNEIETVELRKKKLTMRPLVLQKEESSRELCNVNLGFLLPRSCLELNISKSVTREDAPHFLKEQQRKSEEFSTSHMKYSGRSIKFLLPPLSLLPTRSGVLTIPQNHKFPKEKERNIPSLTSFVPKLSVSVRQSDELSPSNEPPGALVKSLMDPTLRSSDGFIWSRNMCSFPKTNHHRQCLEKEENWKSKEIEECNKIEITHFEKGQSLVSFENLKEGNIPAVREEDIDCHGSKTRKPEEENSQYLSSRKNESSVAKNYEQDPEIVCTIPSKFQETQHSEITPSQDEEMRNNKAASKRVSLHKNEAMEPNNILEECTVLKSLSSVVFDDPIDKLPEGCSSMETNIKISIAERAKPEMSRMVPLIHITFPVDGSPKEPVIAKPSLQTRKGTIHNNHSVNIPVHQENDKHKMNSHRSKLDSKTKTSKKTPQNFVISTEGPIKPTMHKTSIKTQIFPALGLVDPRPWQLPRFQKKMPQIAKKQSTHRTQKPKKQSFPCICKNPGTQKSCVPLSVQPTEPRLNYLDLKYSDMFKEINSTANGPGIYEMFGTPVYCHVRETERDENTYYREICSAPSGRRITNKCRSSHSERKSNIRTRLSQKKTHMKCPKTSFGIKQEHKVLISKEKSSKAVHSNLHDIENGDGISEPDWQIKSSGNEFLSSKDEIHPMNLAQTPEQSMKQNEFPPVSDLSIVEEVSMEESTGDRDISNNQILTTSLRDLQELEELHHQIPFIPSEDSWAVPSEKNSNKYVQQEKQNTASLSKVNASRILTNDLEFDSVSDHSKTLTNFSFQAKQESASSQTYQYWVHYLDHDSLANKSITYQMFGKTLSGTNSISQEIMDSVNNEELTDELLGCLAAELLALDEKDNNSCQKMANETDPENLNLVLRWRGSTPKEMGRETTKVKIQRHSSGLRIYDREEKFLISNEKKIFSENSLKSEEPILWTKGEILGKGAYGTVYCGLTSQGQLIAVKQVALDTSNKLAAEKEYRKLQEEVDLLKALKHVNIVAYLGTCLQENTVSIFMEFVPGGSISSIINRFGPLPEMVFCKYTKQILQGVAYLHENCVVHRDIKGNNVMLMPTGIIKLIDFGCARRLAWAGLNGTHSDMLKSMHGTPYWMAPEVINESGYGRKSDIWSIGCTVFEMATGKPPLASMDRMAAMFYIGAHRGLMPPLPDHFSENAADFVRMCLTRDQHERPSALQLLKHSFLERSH
NUAK2, sequence (Q9H093 whole entry): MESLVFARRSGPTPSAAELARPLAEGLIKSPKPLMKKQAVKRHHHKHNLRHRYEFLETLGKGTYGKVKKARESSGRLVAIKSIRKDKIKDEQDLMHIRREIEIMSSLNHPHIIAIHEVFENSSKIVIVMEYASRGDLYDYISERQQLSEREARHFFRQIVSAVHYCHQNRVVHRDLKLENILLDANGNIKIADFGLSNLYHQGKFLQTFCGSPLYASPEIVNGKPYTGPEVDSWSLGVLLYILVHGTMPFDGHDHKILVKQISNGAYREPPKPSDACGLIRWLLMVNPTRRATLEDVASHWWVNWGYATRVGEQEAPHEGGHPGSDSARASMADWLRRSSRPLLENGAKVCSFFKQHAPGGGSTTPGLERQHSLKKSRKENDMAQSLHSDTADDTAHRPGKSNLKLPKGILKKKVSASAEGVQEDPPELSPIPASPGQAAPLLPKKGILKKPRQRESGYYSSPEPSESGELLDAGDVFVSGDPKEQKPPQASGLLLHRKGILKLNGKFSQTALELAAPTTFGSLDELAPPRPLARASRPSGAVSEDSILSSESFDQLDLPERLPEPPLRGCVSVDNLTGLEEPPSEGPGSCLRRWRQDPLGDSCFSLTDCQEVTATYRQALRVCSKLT
DCLK2, sequence (Q8N568 whole entry): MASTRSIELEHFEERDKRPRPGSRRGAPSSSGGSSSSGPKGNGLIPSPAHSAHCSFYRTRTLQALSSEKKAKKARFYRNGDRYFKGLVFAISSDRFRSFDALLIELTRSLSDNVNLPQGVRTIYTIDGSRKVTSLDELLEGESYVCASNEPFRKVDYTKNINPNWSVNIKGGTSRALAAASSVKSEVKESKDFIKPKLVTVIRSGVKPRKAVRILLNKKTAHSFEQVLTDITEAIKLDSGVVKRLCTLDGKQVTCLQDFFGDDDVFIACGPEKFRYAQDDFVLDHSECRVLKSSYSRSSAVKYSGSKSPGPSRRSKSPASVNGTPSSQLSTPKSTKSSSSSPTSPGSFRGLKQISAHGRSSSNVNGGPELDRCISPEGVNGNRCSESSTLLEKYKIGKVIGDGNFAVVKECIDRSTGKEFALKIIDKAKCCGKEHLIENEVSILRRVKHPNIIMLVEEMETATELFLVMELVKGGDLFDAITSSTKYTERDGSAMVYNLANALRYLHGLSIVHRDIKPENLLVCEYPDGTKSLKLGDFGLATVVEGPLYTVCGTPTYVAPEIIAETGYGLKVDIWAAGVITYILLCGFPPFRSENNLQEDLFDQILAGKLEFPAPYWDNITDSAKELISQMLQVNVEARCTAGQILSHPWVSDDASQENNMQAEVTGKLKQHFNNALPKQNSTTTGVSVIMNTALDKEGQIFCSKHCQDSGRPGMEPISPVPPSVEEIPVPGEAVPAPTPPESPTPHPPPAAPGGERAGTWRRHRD
ACVR2A, sequence (P27037 whole entry): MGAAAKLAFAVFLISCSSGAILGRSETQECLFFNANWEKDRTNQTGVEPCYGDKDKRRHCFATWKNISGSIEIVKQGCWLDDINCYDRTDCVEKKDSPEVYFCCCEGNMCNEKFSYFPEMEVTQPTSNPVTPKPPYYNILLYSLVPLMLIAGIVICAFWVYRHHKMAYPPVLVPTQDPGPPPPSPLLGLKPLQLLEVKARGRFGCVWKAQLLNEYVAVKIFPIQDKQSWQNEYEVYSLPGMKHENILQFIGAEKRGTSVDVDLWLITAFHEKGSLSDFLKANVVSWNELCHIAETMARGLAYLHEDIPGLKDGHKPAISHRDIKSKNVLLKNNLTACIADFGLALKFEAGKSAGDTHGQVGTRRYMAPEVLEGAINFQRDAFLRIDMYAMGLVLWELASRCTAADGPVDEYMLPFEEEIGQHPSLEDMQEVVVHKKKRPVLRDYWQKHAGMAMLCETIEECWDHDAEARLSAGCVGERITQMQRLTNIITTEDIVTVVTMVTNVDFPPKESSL
RIOK2, sequence (Q9BVS4 whole entry): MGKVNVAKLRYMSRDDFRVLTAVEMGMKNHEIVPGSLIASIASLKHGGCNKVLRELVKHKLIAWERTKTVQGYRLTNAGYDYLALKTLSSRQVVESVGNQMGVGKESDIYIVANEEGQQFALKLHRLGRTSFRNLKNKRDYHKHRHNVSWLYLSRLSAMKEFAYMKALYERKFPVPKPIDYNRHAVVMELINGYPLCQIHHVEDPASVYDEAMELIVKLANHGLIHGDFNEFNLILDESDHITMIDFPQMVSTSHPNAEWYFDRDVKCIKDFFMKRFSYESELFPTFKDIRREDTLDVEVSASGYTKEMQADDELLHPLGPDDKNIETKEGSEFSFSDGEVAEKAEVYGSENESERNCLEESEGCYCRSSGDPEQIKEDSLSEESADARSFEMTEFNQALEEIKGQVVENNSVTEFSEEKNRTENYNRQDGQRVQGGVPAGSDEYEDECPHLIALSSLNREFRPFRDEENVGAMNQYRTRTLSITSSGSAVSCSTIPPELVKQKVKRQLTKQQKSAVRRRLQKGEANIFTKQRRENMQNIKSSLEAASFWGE
WEE2, sequence (P0C1S8 whole entry): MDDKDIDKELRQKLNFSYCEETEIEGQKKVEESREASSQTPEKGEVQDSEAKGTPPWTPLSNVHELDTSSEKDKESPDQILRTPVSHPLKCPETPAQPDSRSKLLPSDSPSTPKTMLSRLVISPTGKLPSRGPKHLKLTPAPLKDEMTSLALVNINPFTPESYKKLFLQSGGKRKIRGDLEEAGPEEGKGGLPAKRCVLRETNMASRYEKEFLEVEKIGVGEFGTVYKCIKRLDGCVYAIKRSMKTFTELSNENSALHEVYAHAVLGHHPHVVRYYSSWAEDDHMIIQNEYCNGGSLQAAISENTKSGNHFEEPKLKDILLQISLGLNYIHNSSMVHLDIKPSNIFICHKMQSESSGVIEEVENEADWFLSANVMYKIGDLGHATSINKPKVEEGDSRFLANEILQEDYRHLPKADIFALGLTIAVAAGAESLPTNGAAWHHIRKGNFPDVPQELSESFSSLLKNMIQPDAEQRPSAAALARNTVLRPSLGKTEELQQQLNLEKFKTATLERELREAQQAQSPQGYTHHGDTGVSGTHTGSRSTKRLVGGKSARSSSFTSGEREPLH
TNK1, sequence (Q13470 whole entry): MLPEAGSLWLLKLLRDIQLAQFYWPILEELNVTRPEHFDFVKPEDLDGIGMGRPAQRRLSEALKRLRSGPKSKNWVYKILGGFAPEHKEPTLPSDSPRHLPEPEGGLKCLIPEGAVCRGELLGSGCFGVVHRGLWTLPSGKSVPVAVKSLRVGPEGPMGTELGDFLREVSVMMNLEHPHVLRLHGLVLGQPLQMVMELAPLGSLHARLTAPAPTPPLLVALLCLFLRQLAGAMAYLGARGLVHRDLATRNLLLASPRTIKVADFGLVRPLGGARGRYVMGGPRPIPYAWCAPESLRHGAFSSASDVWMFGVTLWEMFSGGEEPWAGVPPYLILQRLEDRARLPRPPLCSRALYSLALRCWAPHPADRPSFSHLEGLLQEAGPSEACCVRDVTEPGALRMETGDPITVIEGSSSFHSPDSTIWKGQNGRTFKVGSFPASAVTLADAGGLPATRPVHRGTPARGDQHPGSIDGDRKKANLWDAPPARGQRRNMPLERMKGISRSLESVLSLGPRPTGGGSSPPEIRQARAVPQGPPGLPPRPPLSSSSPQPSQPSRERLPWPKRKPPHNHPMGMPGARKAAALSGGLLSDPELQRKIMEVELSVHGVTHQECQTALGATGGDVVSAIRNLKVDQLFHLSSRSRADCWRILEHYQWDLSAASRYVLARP

Oc1ccc(C2=Cc3ccc(O)cc3OC2)cc1 [compound 1, idronoxil]
remaining binding at 10 µM (TGFBR1): 78% | remaining binding at 10 µM (EPHB3): 95% | remaining binding at 10 µM (WEE2): 95% | remaining binding at 10 µM (DDR2): 100% | remaining binding at 10 µM (MELK): 64% | remaining binding at 10 µM [1]: 100% | remaining binding at 10 µM (TNK1): 76% | Kd (MAP3K19): 2.2 µM | remaining binding at 10 µM (MAP3K19; read-out: Percent Control): 12% | remaining binding at 10 µM (MARK4): 97% | remaining binding at 10 µM (FGFR3): 80% | remaining binding at 10 µM (ACVR2A): 66% | remaining binding at 10 µM (PHKG2): 46% | remaining binding at 10 µM (MAP3K7): 89% | remaining binding at 10 µM (NUAK2): 68% | remaining binding at 10 µM (MAST1): 93% | remaining binding at 10 µM (RIOK2): 82% | remaining binding at 10 µM (MUSK): 89% | remaining binding at 10 µM (DCLK2): 73% | remaining binding at 10 µM [2]: 90% | remaining binding at 10 µM (CHUK): 81%

Source: paper PMC10507085, “Pharmacological inhibition of TBK1/IKKε blunts immunopathology in a murine model of SARS-CoV-2 infection” (Nature Communications, 2023)
